{"source": "patent US20140364431A1", "about": "“Quinoline and cinnoline derivatives and their applications” (Shenyang Pharmaceutical University, priority 2011, published 2014)", "origin": "cited, not measured here", "system": "human tumor cell lines (such as human lung cancer cells, human gastric cancer cells, etc.)", "conditions": "cited from earlier work"}
{"smiles": "COc1cc2c(Oc3ccc(NC(=O)C4(C(=O)Nc5ccc(F)cc5)CC4)cc3F)ccnc2cc1OCCCN1CCOCC1", "note": "[Foretinib]", "values": [{"measurement": "IC50 against a variety of human tumor cell lines", "result": 4, "unit": "ng/mL"}]}
